The record followed here is US20230293407A1, “Compositions Comprising (Bio)-Alkanediols with Antimicrobials for Product Protection” (Symrise AG, priority 2020, published 2023).

Common to all, as to assay: preservation efficacy test (PET), European Pharmacopoeia 5.1.3
Common to all, as to type: cell-based

One assay concerns Pseudomonas aeruginosa. Conditions: for count at 28 days / count at 2 days / count at 7 days / count at 14 days: PA, use concentration in label; for count at 2 days / PA germ count, 2 days: 2 days after inoculation; for count at 7 days / PA germ count, 7 days: 7 days after inoculation; for count at 14 days / PA germ count, 14 days: 14 days after inoculation.
The next assay concerns Staphylococcus aureus. Conditions: for number of microorganisms, 2 days / number of microorganisms, 7 days / number of microorganisms, 14 days / number of microorganisms, 28 days: PET, Staphylococcus aureus (SA); for number of microorganisms, 14 days / count at 14 days / SA germ count, 14 days: 14 days after inoculation; for number of microorganisms, 28 days / count at 28 days / SA germ count, 28 days: 28 days after inoculation; for count at 2 days / count at 7 days / count at 14 days / count at 28 days: SA, use concentration in label.

For the next assay, the system named is Aspergillus brasiliensis. Conditions: for number of microorganisms, 2 days / number of microorganisms, 7 days / number of microorganisms, 14 days / number of microorganisms, 28 days: PET, Aspergillus brasiliensis (AB); for number of microorganisms, 2 days: 2 days after inoculation; for number of microorganisms, 7 days: 7 days after inoculation; for number of microorganisms, 14 days: 14 days after inoculation; for number of microorganisms, 28 days: 28 days after inoculation.

For the next assay, the system named is Escherichia coli. Conditions: for number of microorganisms, 2 days / number of microorganisms, 7 days / number of microorganisms, 14 days / number of microorganisms, 28 days: PET, Escherichia coli (EC); for number of microorganisms, 2 days / count at 2 days / EC germ count, 2 days: 2 days after inoculation; for number of microorganisms, 7 days / count at 7 days / EC germ count, 7 days: 7 days after inoculation; for number of microorganisms, 14 days / count at 14 days / EC germ count, 14 days: 14 days after inoculation; for number of microorganisms, 28 days / count at 28 days / EC germ count, 28 days: 28 days after inoculation; for count at 2 days / count at 7 days / count at 14 days / count at 28 days: EC, use concentration in label; for EC germ count, 2 days / EC germ count, 7 days / EC germ count, 14 days / EC germ count, 28 days: substance at given % in test formulation.

A further assay deals with Candida albicans. To be noted: for number of microorganisms, 2 days / number of microorganisms, 7 days / number of microorganisms, 14 days / number of microorganisms, 28 days: PET, Candida albicans (CA); for number of microorganisms, 28 days / count at 28 days / CA germ count, 28 days: 28 days after inoculation; for count at 14 days / count at 28 days / count at 7 days: CA, use concentration in label.

Where [1] appears, read: substance at given % in test formulation.
[2] abbreviates: 2 days after inoculation, substance at given % in test formulation.
Setting [3] is: 7 days after inoculation, substance at given % in test formulation.

Several values for one entry are separate records, joined by “and”; a condition that tells them apart may be missing. Equal values may be shown once. Read-outs that look alike come from different tables or passages of the source.

As for `O=C([O-])c1ccccc1.[Na+]` [0.1% Sodium Benzoate], the “PA germ count, 28 days” value in the assay on Pseudomonas aeruginosa was 18.000 and 10. For the same molecule, in the assay with Staphylococcus aureus, the “SA germ count, 2 days” value was 14.000 and 10; the “SA germ count, 7 days” value is 9.800 and 10. Also, in the assay on Aspergillus brasiliensis, the “AB germ count, 14 days” value turned out to be 20.000 and the “AB germ count, 28 days” value was determined as 4.800.

With `CCCCCCCC(=O)NO` [caprylhydroxamic acid, reference compound], the “number of microorganisms, 2 days” value in the assay on Staphylococcus aureus (2 days after inoculation) amounted to 1; with Escherichia coli, 6.900; in the assay with Candida albicans (2 days after inoculation) it was 210.000; in the assay with Aspergillus brasiliensis it was 810.000. Moreover, the “number of microorganisms, 7 days” value in the assay on Staphylococcus aureus (7 days after inoculation) came to 1; in the assay on Escherichia coli, 1; in the assay on Candida albicans (7 days after inoculation) it was 1; in the assay with Aspergillus brasiliensis, 68.000. In addition, the “number of microorganisms, 14 days” value in the assay on Staphylococcus aureus is 1; in the assay with Escherichia coli it was 1; in the assay with Candida albicans (14 days after inoculation), 1; in the assay with Aspergillus brasiliensis, 180. In addition, the “number of microorganisms, 28 days” value in the assay with Staphylococcus aureus, in the assay on Escherichia coli, with Candida albicans and with Aspergillus brasiliensis was 1 throughout.

In the case of `CCCCCCC(O)CO` (stereo not shown) [1,2-octanediol], the “number of microorganisms, 2 days” value is 1 in the assay with Staphylococcus aureus (2 days after inoculation), 1 in the assay with Escherichia coli, 70.000 in the assay with Candida albicans (2 days after inoculation) and 650.000 in the assay with Aspergillus brasiliensis. Besides, the “number of microorganisms, 7 days” value is given as 1 in the assay on Staphylococcus aureus (7 days after inoculation), 1 with Escherichia coli, 9.000 in the assay with Candida albicans (7 days after inoculation) and 360.000 with Aspergillus brasiliensis. In addition, the “number of microorganisms, 14 days” value is given as 1 in the assay on Staphylococcus aureus, 1 in the assay with Escherichia coli, 1 with Candida albicans (14 days after inoculation) and 250.000 in the assay with Aspergillus brasiliensis. The “number of microorganisms, 28 days” value in the assay on Staphylococcus aureus is recorded as 1; in the assay on Escherichia coli, 1; with Candida albicans it was 1; with Aspergillus brasiliensis, 67.000.

Take `CC(C)(C)C(=O)C(Oc1ccc(Cl)cc1)n1ccnc1` (stereo not shown) [0.4% Climbazole]: the “count at 28 days” value in the assay with Pseudomonas aeruginosa (28 days after inoculation) worked out at 940.000; with Staphylococcus aureus it was 1; in the assay on Escherichia coli, 1; with Candida albicans, 72.000. In addition, the “count at 2 days” value in the assay on Staphylococcus aureus (2 days after inoculation) stood at 340.000; in the assay on Escherichia coli, 940.000. The “count at 7 days” value with Staphylococcus aureus (7 days after inoculation) was found to be 1; in the assay on Escherichia coli it was 810.000. Besides, the “count at 14 days” value with Staphylococcus aureus worked out at 1; in the assay on Escherichia coli, 690; with Candida albicans (14 days after inoculation), 760.000.

Regarding `O=c1cccccc1O` [Tropolone, reference compound], the “number of microorganisms, 2 days” value in the assay with Staphylococcus aureus (2 days after inoculation) was determined as 110.000; in the assay with Escherichia coli, 190.000; in the assay with Candida albicans (2 days after inoculation), 1; with Aspergillus brasiliensis, 690.000. The “number of microorganisms, 7 days” value stood at 3.100 in the assay on Staphylococcus aureus (7 days after inoculation), 1.100 in the assay on Escherichia coli, 1 in the assay with Candida albicans (7 days after inoculation) and 26.000 with Aspergillus brasiliensis. Moreover, the “number of microorganisms, 14 days” value is 3.100 in the assay on Staphylococcus aureus, 1.100 in the assay with Escherichia coli, 1 in the assay with Candida albicans (14 days after inoculation) and 1.400 in the assay on Aspergillus brasiliensis. The “number of microorganisms, 28 days” value in the assay with Staphylococcus aureus, with Escherichia coli, in the assay with Candida albicans and in the assay on Aspergillus brasiliensis was 1 in each case.

Regarding `CC(C)=CCC/C(C)=C/CC/C(C)=C/CO` [0.3% farnesol], the “count at 2 days” value is 460.000 with Pseudomonas aeruginosa and 720.000 with Staphylococcus aureus (2 days after inoculation). Moreover, the “count at 7 days” value in the assay on Pseudomonas aeruginosa is reported as 380.000; in the assay with Staphylococcus aureus (7 days after inoculation), 52.000; with Escherichia coli, 390.000; in the assay with Candida albicans (7 days after inoculation), 880.000. Also, the “count at 14 days” value with Pseudomonas aeruginosa came to 610.000; with Staphylococcus aureus, 100.000; in the assay on Escherichia coli it was 12.000. The “count at 28 days” value turned out to be 65.000 in the assay with Pseudomonas aeruginosa (28 days after inoculation), 33.000 in the assay with Staphylococcus aureus and 1.000 in the assay on Escherichia coli.

As for `CCCCCCC(O)CO` (stereo not shown) [0.2% 1,2-octanediol], in the assay with Pseudomonas aeruginosa (setting [1]), the “PA germ count, 2 days” value is 1; the “PA germ count, 7 days” value is 1; the “PA germ count, 14 days” value was 1. In addition, the “PA germ count, 28 days” value in the assay with Pseudomonas aeruginosa (28 days after inoculation, substance at given % in test formulation) amounted to 1. Further, the “SA germ count, 2 days” value in the assay with Staphylococcus aureus (setting [2]) came to 1. Also, the “SA germ count, 7 days” value in the assay with Staphylococcus aureus (setting [3]) came out at 1. In the assay on Staphylococcus aureus (setting [1]), the “SA germ count, 14 days” value is 1 and the “SA germ count, 28 days” value is 1. For the same molecule, in the assay with Escherichia coli, the “EC germ count, 2 days” value came out at 1; the “EC germ count, 7 days” value is 1; the “EC germ count, 14 days” value turned out to be 1; the “EC germ count, 28 days” value was 1. Also, in the assay on Candida albicans (setting [2]), the “CA germ count, 2 days” value came to 950.000. Further, the “CA germ count, 7 days” value with Candida albicans (setting [3]) came to 15.000. In the assay on Candida albicans (14 days after inoculation, substance at given % in test formulation), the “CA germ count, 14 days” value is 36. The “CA germ count, 28 days” value with Candida albicans (setting [1]) turned out to be 1.

In the case of `CCCCCCCCC(O)CO` (stereo not shown) [1,2-decylene glycol, reference compound], the “number of microorganisms, 2 days” value with Staphylococcus aureus (2 days after inoculation) was 1; in the assay on Escherichia coli it was 1; with Candida albicans (2 days after inoculation) it was 50.000; in the assay on Aspergillus brasiliensis, 600.000. Further, the “number of microorganisms, 7 days” value is listed as 1 in the assay with Staphylococcus aureus (7 days after inoculation), 1 in the assay on Escherichia coli, 12.000 with Candida albicans (7 days after inoculation) and 520.000 with Aspergillus brasiliensis. The “number of microorganisms, 14 days” value was 1 in the assay with Staphylococcus aureus, 1 in the assay on Escherichia coli, 4.100 in the assay with Candida albicans (14 days after inoculation) and 240.000 in the assay with Aspergillus brasiliensis. Also, the “number of microorganisms, 28 days” value came out at 1 with Staphylococcus aureus, 1 in the assay with Escherichia coli, 1 in the assay with Candida albicans and 190.000 in the assay on Aspergillus brasiliensis.

With `CC(CO)CCCC1CCCCC1` (stereo not shown) [1.0% 2-Methyl 5-Cyclohexylpentanol], in the assay on Pseudomonas aeruginosa (setting [1]), the “PA germ count, 2 days” value turned out to be 670.000; the “PA germ count, 7 days” value turned out to be 570.000; the “PA germ count, 14 days” value is 780.000. In the assay with Staphylococcus aureus (setting [2]), the “SA germ count, 2 days” value turned out to be 110.000. In addition, the “SA germ count, 7 days” value in the assay on Staphylococcus aureus (setting [3]) stood at 760. Also, in the assay on Staphylococcus aureus (setting [1]), the “SA germ count, 14 days” value is recorded as 1 and the “SA germ count, 28 days” value was 1. In the assay with Escherichia coli, the “EC germ count, 2 days” value was determined as 960.000; the “EC germ count, 7 days” value came to 490.000; the “EC germ count, 14 days” value came out at 310.000; the “EC germ count, 28 days” value is given as 380.000. Further, the “CA germ count, 28 days” value in the assay on Candida albicans (setting [1]) worked out at 630.000.

For `CCCCCC(O)CO` (stereo not shown) [0.4 % 1,2-heptanediol], the entries for the “count at 2 days” value in the assay on Pseudomonas aeruginosa, with Staphylococcus aureus (2 days after inoculation) and with Escherichia coli were 1, 1 and 140, respectively. The “count at 7 days” value is 1 in the assay on Pseudomonas aeruginosa, 1 in the assay on Staphylococcus aureus (7 days after inoculation), 1 in the assay on Escherichia coli and 39.000 in the assay with Candida albicans (7 days after inoculation). For the same molecule, the “count at 14 days” value in the assay on Pseudomonas aeruginosa was 1; with Staphylococcus aureus, 1; with Escherichia coli, 1; with Candida albicans (14 days after inoculation) it was 590. The “count at 28 days” value came out at 1 in the assay on Pseudomonas aeruginosa (28 days after inoculation), 1 with Staphylococcus aureus, 1 in the assay with Escherichia coli and 27 in the assay on Candida albicans.

`Cc1cc(O)ccc1C(C)C` [0.1% o-Cymen-5-ol]: the “count at 7 days” value in the assay with Pseudomonas aeruginosa amounted to 250.000; with Staphylococcus aureus (7 days after inoculation), 18.000; in the assay with Escherichia coli, 270.000. Besides, the “count at 14 days” value in the assay on Pseudomonas aeruginosa worked out at 900.000; with Staphylococcus aureus, 1; in the assay with Escherichia coli, 270.000. The “count at 28 days” value is recorded as 460.000 in the assay on Pseudomonas aeruginosa (28 days after inoculation), 1 in the assay with Staphylococcus aureus, 51.000 in the assay with Escherichia coli and 690.000 with Candida albicans.
